The METLIN SMRT retention time set (Domingo-Almenara et al. 2019)

Experiment: gradient 5% acetonitrile 3 min, to 50% in 2 min, to 85% in 15 min, held 3 min, 100 µL/min
Settings: column: Zorbax Extend-C18 2.1 x 50 mm; eluents: water / acetonitrile, 0.1% formic acid
Summary of the method: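 Using water and acetonitrile that each contained 0.1% formic acid, mixtures of ~100 pure standards were separated at 100 μL/min on a Zorbax Extend-C18 column (2.1 × 50 mm, 1.8 μm). The HPLC fed a quadrupole time-of-flight mass spectrometer working in positive and negative ionization mode, with dead and dwell volumes of 40 μL and 900 μL. Data were acquired over 3 months. Retention time was read from computationally picked adduct peaks after manual inspection of each.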

RP-LC retention time	Structure (SMILES)
546 s	CCC(=O)N1CCc2c(sc3ncnc(N4CCN(C)CC4)c23)C1
1150 s	CCc1ccc(-n2c(-c3ccc(Cl)cc3)cn3c4c(=O)n(C)c(=O)n(C)c4nc23)cc1
566 s	Cc1cc(C)c(C(=O)N2CCC(CC(=O)NCCCN3CCN(C)CC3)CC2)[nH]1
709 s	COc1ccc(NC(=O)Cn2nc3n(c2=O)CCCCC3)cc1
672 s	NC(=O)c1oc2ccccc2c1NC(=O)C1=COCCO1
719 s	COc1ccc(CNC(=O)CN2C(=O)NC3(CCCCC3)C2=O)cc1
596 s	O=C(NCCN1CCOCC1)C1CCN(c2ccc3nnc(-c4ccccc4Cl)n3n2)CC1
798 s	Cc1ccccc1NC(=O)Cn1nc2nc(N3CCCC(C)C3)ccn2c1=O (stereo unspecified)
840 s	Cn1c(=O)n([C@H]2CCN(S(=O)(=O)c3ccccc3Cl)C2)c2ncccc21
992 s	COc1ccccc1-c1nnc(-c2ccc(Cl)c(S(=O)(=O)N3CCCC3)c2)o1
1210 s	CCc1ccccc1NS(=O)(=O)c1cc(-c2cc(C(F)(F)F)on2)sc1C
1230 s	COc1ccc(Cl)cc1NC(=O)CSc1nc(-c2ccccc2C)ns1
895 s	CCCn1c(=O)c(C)nc2cc(-c3noc(C4CC(=O)N(c5ccccc5)C4)n3)ccc21 (stereo unspecified)
856 s	CCc1ccc(OCc2nc(CCN(C)C(=O)Nc3ccc(OC)c(OC)c3)no2)cc1
850 s	O=C(N[C@H]1C[C@@H]2C[C@H]1N(C(=O)c1ccc(Cl)s1)C2)c1cccs1
914 s	COC(=O)C1=CN(c2cc(Cl)c(OC)cc2OC)c2ccc(F)cc2S1(=O)=O
659 s	COC(=O)C(C)NC(=O)N1CCN(c2nc3ccccc3n2Cc2ccccc2)CC1 (stereo unspecified)
604 s	O=C(O)c1cc(-c2ccco2)n(C2CCS(=O)(=O)C2)n1 (stereo unspecified)
958 s	CC1(C(=O)NCc2ccccc2)CN(S(=O)(=O)c2ccccc2)CC(=O)N1c1cccc(Cl)c1 (stereo unspecified)
547 s	Cc1nnc(NC(=O)CCc2c(C)[nH]c(=O)[nH]c2=O)s1
721 s	COc1ccc(C(=O)Oc2ccc[nH]c2=O)cc1
542 s	O=C1C(N2CCN(S(=O)(=O)c3ccc(F)cc3F)CC2)CCN1Cc1cccnc1 (stereo unspecified)

RP-LC retention time	Structure (SMILES)
796 s	C[C@]12CCC3=C4CCC(=O)C=C4CC[C@H]3[C@@H]1CC[C@@]2(O)CC#N
1020 s	CCc1nn2c(CNS(=O)(=O)Cc3ccc(Cl)cc3)c(-c3ccccc3)nc2s1
852 s	O=C([C@@H]1C[C@H](F)CN1S(=O)(=O)c1ccc(Cl)cc1)N1CCCCC1
1210 s	Cc1cc2oc(C(=O)NCCc3nc(-c4ccccc4)no3)c(C)c2cc1C
898 s	Cc1cc(C)c(NC(=O)/C=C/c2ccccc2)c(C)c1
605 s	Cc1ccc(CNC(=O)c2cc3n(n2)CC(C)(C(=O)NC2CCCCC2)N(C)C3=O)cc1 (stereo unspecified)
728 s	Cc1cc(C2CCCN2C(=O)Nc2ccc(C)c(C)c2)on1 (stereo unspecified)
763 s	CC(C)Cn1c(-c2cccc(C(=O)NC(C)C)c2)nc2cccnc21
596 s	Cn1ccc2cc(CCC(=O)NCc3ccncc3)ccc21
1070 s	Cn1cc2nc(SCc3cc(F)cc(F)c3)n(Cc3ccc(F)cc3)c(=O)c2n1
695 s	CC(C)c1cc(N2CCN(c3ccccn3)CC2)n2c(nc3ccccc32)c1C#N
642 s	Cc1ccc(-c2cn3c(n2)N(C(=O)c2sc(C)nc2C)CCC3)cc1
651 s	CCn1cnc2cc(CNC(=O)c3ccc(C(F)(F)F)cc3)ccc21
891 s	COc1ccc(CCNC(=O)C2CCCN(S(=O)(=O)c3ccc(OC)c(C)c3)C2)cc1 (stereo unspecified)
661 s	COc1cc(NC(=O)NCC(c2cccnc2)c2cn(C)c3ccccc23)cc(OC)c1OC (stereo unspecified)
587 s	O=C(O)c1ccc(NCCCO)c([N+](=O)[O-])c1
982 s	Cc1ccc(Nc2c(-c3ccccc3)nc3cnccn23)c(C)c1
779 s	O=C(NCC1CCCO1)c1ccc(-c2cnc(Oc3ccccc3)nc2)cc1 (stereo unspecified)
778 s	COc1ccc(S(=O)(=O)N2CCCC(C(=O)NCC3CCCO3)C2)cc1C (stereo unspecified)
737 s	CCN1c2ccccc2C(=O)NC12CCN(C(=O)Nc1ccc3c(c1)OCCO3)CC2
716 s	CC(CCc1ccccc1)NC(=O)Cn1nc2n(c1=O)CCCC2 (stereo unspecified)
790 s	O=C(C1CCCCC1)N1CCN(c2ccc(=O)n(-c3ccccc3)n2)CC1

RP-LC retention time	Structure (SMILES)
1310 s	CCOc1ccc(-c2csc(Cc3nc(-c4ccc(C)cc4)no3)n2)cc1
710 s	CCCn1c(C)cnc1C1CN(S(=O)(=O)c2ccc(C)c(Cl)c2)C1
641 s	O=C(NCc1cccs1)C1CCCN(C(=O)c2cc(-c3ccccn3)n[nH]2)C1 (stereo unspecified)
1110 s	Cc1ccc(C)c(N2CCN(C(=O)Cn3ccc4ccc(N5CCOCC5)nc43)CC2)c1
832 s	Cc1ccccc1NS(=O)(=O)c1cc2c(s1)CCN(C(=O)C1CCC1)C2
1020 s	Cc1nc(-c2csc(S(=O)(=O)N3CCCC(C(=O)Nc4cccc(Cl)c4C)C3)c2)no1 (stereo unspecified)
1080 s	CC(=O)c1cc2c(cc1NC(=O)c1ccc(COc3ccccc3)o1)OCO2
725 s	O=C(Cc1csc(NS(=O)(=O)c2ccc(Cl)cc2)n1)NCc1cccs1
645 s	CNC(=O)c1cccc(Nc2c(-c3ccccc3)nc3cnccn23)c1
792 s	O=C1CCCc2cc(S(=O)(=O)N3CCCC(C(=O)N4CCc5ccccc5C4)C3)ccc2N1 (stereo unspecified)
1120 s	Cc1ccccc1-c1nc(-c2ccc3c(c2)nc(C)c(=O)n3C)no1
700 s	O=C(c1cccs1)N1CCCN(c2ccc(=O)n(-c3ccccc3)n2)CC1
597 s	CN(C)C(=O)c1ccc2c(c1)nc(CN1CCN(C(=O)c3ccccc3)CC1)n2C
642 s	COc1ccc(C(O)CN2CCN(c3ccccc3F)CC2)cc1OC (stereo unspecified)
626 s	CN(C)c1ccc(C(CNC(=O)c2ccc(Br)o2)N2CCOCC2)cc1 (stereo unspecified)
688 s	COc1ccc(C2C(C(=O)O)c3ccccc3C(=O)N2C)cc1 (stereo unspecified)
1130 s	CC(=O)N1CCCSc2ccc(S(=O)(=O)N3CCN(c4cc(C)ccc4C)CC3)cc21
1090 s	CCSc1nnc(-c2nn(C)c3c2CN(S(=O)(=O)c2ccc(C(C)C)cc2)CC3)n1CC
611 s	CCN(CC)CCNC(=O)C1c2ccccc2C(=O)N(C)C1c1cccs1 (stereo unspecified)
717 s	O=c1n(CC2CC2)nc2n1CCC(NS(=O)(=O)c1cccc(F)c1)CC2 (stereo unspecified)
895 s	O=c1c(=O)n(-c2cccc(Cl)c2)ccn1Cc1nc(-c2cccc(F)c2)no1
654 s	O=C(Nc1nc2c(s1)CN(Cc1ccccc1)CC2)C1CCCN1S(=O)(=O)c1cccs1 (stereo unspecified)
